Reference: ChEMBL document CHEMBL1201862, “PubChem BioAssay data set” (2004)
The source made the active and inactive calls.

What was measured:
Type in all cases: functional
[1] = test system: CHO-K1; assay: (§1) Counterscreen for antagonists of the orexin 1 receptor (OX1R; HCRTR1): Homogeneous time resolved fluorescence (HTRF)-based cell-based dose response assay to identify antagonists of the parental CHO-K1 cell line. [Related pubchem assays (depositor defined):AID434989, AID435008, AID463079, AID485270, AID492963, AID492964, AID492965, AID493232, AID504699, AID504701]; conditions: Cricetulus griseus
[2] = as §1, with “Fluorescence-based” for “Homogeneous time resolved fluorescence (HTRF)-based”, “cell-based high throughput” for “cell-based”, “CHO” for “CHO-K1”
[3] = target: T1, Orexin/Hypocretin receptor type 1 (Homo sapiens, UniProt O43613); assay: Homogeneous Time Resolved Fluorescence (HTRF)-based cell-based high throughput dose response assay for antagonists of the orexin 1 receptor (OX1R; HCRTR1). [Related pubchem assays (depositor defined):AID434989, AID435008, AID463079, AID485270, AID492963, AID492964, AID492965, AID493232, AID504717, AID504718]
T1 sequence (O43613 whole entry): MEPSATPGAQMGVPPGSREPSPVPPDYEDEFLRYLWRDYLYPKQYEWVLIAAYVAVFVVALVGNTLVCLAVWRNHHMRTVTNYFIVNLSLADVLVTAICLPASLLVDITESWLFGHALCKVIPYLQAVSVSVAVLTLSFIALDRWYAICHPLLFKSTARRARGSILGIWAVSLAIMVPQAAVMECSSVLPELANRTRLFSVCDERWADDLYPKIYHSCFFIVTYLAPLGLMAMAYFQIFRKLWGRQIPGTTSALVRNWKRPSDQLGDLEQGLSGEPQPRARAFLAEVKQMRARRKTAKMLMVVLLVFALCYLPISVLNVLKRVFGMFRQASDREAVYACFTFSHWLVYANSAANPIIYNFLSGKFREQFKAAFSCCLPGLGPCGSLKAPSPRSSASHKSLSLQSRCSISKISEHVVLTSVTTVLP

[4] = target: T1, Orexin/Hypocretin receptor type 1; assay: Fluorescence-based cell-based high throughput dose response assay for antagonists of the orexin 1 receptor (OX1R; HCRTR1). [Related pubchem assays (depositor defined):AID434989, AID435008, AID463079, AID485270, AID492963, AID492964, AID492965, AID493232, AID504717, AID504718]
[5] = target: T2, Orexin receptor type 2 (Homo sapiens, UniProt O43614); assay: Counterscreen assay for antagonists of the orexin 1 receptor (OX1R; HCRTR1): Fluorescence-based cell-based dose response assay for antagonists of the orexin 2 receptor (OX2R; HCRTR2), run by assay provider.
T2 sequence (O43614 whole entry): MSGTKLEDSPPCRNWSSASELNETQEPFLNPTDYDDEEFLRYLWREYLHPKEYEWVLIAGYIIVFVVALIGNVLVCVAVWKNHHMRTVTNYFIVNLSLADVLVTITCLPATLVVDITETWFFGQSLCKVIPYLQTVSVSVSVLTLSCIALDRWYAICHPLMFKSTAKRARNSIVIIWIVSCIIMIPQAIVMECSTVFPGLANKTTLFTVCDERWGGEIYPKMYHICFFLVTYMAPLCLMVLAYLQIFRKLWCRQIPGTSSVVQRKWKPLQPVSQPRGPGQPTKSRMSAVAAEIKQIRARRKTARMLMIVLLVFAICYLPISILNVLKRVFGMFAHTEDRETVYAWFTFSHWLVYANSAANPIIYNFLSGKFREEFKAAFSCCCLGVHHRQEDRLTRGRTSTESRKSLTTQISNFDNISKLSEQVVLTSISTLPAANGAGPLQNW

[6] = target: T2, Orexin receptor type 2; assay: Counterscreen assay for antagonists of the orexin 1 receptor (OX1R; HCRTR1): Homogeneous Time Resolved Fluorescence (HTRF)-based cell-based dose response assay for antagonists of the orexin 2 receptor (OX2R; HCRTR2), run by assay provider.
[7] = target: T3, fMet-Leu-Phe receptor (Homo sapiens, UniProt P21462); assay: formyl peptide receptor binders – dose response (AID 519)
T3 sequence (P21462 whole entry): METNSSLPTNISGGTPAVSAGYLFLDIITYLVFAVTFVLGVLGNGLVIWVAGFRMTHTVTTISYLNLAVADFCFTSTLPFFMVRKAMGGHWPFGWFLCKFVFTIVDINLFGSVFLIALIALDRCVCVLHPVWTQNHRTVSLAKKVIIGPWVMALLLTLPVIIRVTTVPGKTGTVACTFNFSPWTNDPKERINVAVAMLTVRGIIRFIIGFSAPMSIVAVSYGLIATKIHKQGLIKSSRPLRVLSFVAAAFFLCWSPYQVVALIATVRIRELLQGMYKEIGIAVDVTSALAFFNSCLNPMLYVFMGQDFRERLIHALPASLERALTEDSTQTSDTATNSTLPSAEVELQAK

[8] = target: T4, Fatty acid synthase (Homo sapiens, UniProt P49327); assay: inhibition of human FAS-TE enzyme activity – biochemical, endpoint fluorescence intensity, uHTS hits, dose response (AID 624327);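 also: fluorescence from hydrolysis of an O-methyl fluorescein acyl ester substrate by the enzyme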
T4 sequence (P49327 whole entry): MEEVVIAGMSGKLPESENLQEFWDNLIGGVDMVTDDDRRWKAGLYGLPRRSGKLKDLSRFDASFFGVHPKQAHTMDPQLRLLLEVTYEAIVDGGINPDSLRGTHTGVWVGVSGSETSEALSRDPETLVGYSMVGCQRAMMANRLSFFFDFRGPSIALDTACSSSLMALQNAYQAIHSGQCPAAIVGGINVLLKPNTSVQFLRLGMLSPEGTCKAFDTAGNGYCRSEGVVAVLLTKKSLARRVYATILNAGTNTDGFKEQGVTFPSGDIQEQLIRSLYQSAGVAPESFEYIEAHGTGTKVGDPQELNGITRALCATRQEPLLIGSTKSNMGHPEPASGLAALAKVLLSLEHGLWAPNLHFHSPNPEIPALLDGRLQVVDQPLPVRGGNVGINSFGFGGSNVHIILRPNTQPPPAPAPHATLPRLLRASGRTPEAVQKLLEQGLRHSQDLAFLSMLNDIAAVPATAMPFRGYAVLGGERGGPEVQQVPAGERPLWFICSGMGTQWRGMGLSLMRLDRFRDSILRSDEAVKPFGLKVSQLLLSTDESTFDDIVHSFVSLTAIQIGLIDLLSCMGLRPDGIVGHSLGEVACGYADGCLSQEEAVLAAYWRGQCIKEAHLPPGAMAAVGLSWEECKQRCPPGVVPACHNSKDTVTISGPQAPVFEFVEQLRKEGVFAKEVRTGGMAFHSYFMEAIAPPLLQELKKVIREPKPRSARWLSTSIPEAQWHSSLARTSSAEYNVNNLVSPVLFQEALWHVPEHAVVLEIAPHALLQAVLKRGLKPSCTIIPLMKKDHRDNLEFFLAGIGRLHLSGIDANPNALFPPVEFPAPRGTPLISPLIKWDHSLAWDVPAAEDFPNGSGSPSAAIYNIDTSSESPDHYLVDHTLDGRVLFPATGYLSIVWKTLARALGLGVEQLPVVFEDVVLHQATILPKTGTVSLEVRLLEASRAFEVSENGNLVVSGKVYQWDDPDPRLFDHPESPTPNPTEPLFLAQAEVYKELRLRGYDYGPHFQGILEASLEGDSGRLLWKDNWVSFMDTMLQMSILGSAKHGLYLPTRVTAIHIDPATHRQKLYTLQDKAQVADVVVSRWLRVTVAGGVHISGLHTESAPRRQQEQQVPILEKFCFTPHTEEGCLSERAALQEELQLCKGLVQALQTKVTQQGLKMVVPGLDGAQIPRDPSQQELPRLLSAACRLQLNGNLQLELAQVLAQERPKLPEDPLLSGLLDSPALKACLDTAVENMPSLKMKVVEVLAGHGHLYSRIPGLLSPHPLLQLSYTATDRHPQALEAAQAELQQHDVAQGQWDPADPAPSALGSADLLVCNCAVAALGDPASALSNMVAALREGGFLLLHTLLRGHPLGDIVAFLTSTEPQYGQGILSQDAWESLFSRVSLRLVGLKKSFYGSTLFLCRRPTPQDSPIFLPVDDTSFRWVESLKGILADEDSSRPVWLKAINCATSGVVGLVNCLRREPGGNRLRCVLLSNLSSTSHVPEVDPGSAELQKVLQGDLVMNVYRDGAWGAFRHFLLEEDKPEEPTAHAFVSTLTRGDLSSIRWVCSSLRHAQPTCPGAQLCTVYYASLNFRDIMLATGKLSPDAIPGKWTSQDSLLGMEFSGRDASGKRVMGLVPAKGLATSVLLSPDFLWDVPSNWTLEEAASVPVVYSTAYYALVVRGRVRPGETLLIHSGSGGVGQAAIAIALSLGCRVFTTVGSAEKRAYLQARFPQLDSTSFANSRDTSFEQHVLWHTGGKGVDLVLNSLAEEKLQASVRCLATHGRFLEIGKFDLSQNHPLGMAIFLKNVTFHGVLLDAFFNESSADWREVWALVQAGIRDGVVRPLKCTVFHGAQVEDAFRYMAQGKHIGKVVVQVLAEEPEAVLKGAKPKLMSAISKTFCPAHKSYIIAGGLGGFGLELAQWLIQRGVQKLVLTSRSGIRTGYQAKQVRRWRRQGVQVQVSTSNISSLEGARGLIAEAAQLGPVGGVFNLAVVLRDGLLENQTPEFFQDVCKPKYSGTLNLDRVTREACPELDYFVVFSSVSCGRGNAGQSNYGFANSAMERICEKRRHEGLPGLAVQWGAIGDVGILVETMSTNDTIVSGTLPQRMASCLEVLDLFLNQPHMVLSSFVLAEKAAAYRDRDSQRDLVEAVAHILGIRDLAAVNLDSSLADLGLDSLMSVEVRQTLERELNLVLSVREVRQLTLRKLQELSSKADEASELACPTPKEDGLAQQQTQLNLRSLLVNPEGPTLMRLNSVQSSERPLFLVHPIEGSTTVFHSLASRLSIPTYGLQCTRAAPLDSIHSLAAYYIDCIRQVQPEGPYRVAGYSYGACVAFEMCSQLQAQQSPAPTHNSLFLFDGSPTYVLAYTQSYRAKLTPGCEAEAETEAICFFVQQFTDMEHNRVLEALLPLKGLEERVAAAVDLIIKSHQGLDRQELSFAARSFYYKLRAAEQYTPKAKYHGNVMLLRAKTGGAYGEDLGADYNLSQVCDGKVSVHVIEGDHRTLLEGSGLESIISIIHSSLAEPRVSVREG

[9] = target: T4, Fatty acid synthase; assay: inhibition of human FAS-TE enzyme activity – biochemical, kinetic fluorescence intensity, dose response (AID 624326);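 also: rate of fluorescence rise from hydrolysis of a fluorogenic O-methyl fluorescein ester substrate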

Ki [7] | IC50 [8] | IC50 [9] | Compound | IC50 [1] | IC50 [2] | IC50 [3] | IC50 [4] | IC50 [5] | IC50 [6]
 |  |  | Cc1csc(-c2coc3cc(O)cc(C)c3c2=O)n1 | > 66.2 µM (inactive) | > 49.8 µM (inactive) | 2.54 µM (active) | 10.4 µM (inactive) | > 88.8 µM (inactive) | > 50 µM (inactive)
 |  |  | O=c1cc(CN2CC(O)Cc3ccc4ccccc4c32)nc2sccn12 (stereo not drawn) | > 66.2 µM (inactive) | > 49.7 µM (inactive) | 4.12 µM (active) | 3.29 µM (active) | > 88.8 µM (inactive) | > 50 µM (inactive)
> 66.7 µM (inactive) |  |  | Cc1ccc(C(=O)C2=C(O)C(=O)N(c3cc(C)on3)C2c2cccc(Br)c2)cc1 (stereo not drawn) |  |  |  |  |  | 
 |  |  | CCCCNC(=O)CCC(=O)NNc1nc2ccccc2c2nc(-c3ccccc3)nn12 | > 66.2 µM (inactive) | > 49.8 µM (inactive) | 2.69 µM (active) | 7.27 µM (active) | > 88.8 µM (inactive) | > 50 µM (inactive)
 | 7.81 µM (active) | 5.16 µM (active) | CN(Cc1cccs1)C(=O)Cn1cnc2cc([N+](=O)[O-])ccc2c1=O |  |  |  |  |  | 
 |  |  | Cc1cc(O)cc2c(=O)c3ccccc3sc12 | > 66.3 µM (inactive) | > 49.8 µM (inactive) | 3.64 µM (active) | 8.54 µM (active) | > 88.8 µM (inactive) | 0.009 µM (active)
 |  |  | CN(Cc1ccccc1)C(=O)c1[nH]cnc1C(=O)N[C@@H](Cc1ccccc1)C(=O)OC(C)(C)C | > 66.2 µM (inactive) | > 49.8 µM (inactive) | 0.515 µM (active) | 5.87 µM (active) | > 88.8 µM (inactive) | > 50 µM (inactive)
